Values joined by “and” are separate entries in the source; they are usually repeats but may differ in a detail not shown here. Equal values may be shown once. “Also recorded” adds a separate entry of the source.
Legend:
[1] = biological target: LgGUS (Lactobacillus gasseri GUS) (Lactobacillus gasseri, UniProt Q9AHJ8); test: GUS inhibition assay, hydrolysis of 4-methylumbelliferyl-β-glucuronide, LgGUS; type: biochemical; parameters: GUS activity (hydrolysis rate of MUG) / 1/v: unit not given here
Chain of LgGUS (Lactobacillus gasseri GUS) (Q9AHJ8 1-598): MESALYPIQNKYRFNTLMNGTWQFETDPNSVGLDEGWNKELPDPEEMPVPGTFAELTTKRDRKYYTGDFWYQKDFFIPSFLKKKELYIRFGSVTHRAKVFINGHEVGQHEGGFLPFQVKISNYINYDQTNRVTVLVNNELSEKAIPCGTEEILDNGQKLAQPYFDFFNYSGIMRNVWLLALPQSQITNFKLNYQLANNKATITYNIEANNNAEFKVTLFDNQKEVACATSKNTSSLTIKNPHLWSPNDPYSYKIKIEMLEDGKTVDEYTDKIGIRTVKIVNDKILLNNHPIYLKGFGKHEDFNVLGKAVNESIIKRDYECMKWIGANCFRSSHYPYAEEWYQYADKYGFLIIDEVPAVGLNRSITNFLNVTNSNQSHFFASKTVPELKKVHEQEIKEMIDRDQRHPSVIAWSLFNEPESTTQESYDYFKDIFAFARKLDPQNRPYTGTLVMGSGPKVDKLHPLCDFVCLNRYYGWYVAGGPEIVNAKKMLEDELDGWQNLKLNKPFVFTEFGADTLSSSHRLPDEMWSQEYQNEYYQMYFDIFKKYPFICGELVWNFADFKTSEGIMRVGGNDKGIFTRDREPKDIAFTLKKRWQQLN

EcGUS = EcGUS (Escherichia coli, UniProt P05804); test: Isothermal titration calorimetry, EcGUS; type: binding; details: EcGUS
Chain of EcGUS (P05804 whole entry): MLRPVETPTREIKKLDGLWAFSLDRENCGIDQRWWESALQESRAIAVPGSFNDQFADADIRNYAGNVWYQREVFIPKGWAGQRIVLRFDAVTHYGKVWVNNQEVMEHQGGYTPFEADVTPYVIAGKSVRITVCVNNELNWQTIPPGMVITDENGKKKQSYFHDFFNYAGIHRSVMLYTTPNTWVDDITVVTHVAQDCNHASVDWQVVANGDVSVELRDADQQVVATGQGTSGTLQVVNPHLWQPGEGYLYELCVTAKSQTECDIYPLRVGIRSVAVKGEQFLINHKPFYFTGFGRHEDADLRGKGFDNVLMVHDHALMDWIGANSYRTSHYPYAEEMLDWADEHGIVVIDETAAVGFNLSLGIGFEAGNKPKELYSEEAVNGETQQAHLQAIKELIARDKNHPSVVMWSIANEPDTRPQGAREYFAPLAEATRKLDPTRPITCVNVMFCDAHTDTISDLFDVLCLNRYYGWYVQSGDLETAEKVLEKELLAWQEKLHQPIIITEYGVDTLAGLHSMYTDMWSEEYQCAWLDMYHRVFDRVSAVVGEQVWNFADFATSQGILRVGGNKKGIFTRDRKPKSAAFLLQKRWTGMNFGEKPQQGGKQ

[2] = test system: H184B5F5/M10 non-cancerous human mammary epithelial cells; test: In vitro cytotoxicity, [3H]thymidine incorporation, H184B5F5/M10; type: cell-based; details: 0.001–100 μM for 24 h
[3] = test system: GM637 non-cancerous human fibroblasts; test: In vitro cytotoxicity, [3H]thymidine incorporation, GM637; type: cell-based; details: GM637 cells; 0.001–100 μM for 24 h
BALB/c mice [4] = test: Colon histology (hematoxylin and eosin) after oral gavage; type: in vivo, mouse; details: female BALB/c mice; oral gavage for 5 days; 3 at 37.5 mg per kg body weight, ASN03273363 at 65 mg
[5] = test system: intestinal bacterial GUSs; test: In vivo imaging of GUS activity (FDGiCu probe); parameters: species or system mouse; details: BALB/c mice; oral gavage of inhibitor, then 500 µg FDGiCu intravenously
Description: . […] The mice were then sacrificed and the intestines removed. […] In addition, we performed real-time in vivo gastrointestinal inhibition of bacterial GUSs using whole-body in vivo imaging (Fig. 4a and Supplementary Figs. 11, 12). The mice were gavaged in the same manner as described above. Following the final gavage, 500 µg of FDGiCu (fluorescein-di-β-D-glucuronide as a non-fluorescent probe) was injected intravenously. Upon digestion by intestinal bacterial GUSs, FDGiCu is hydrolyzed to produce fluorescein (as the hydrolyzed product) that can be detected as fluorescence in the intestinal region. […]. Mice were treated for 10 days. […]
Mice were given 3 via oral gavage. […] The hydrolysis product (fluorescein) generated in the gut was quantified over a 2 h period by in vivo imaging (excitation 465 nm, emission 520 nm). The maximum fluorescein fluorescence was observed 60 min after injection of vehicle control. At 2 h post injection, most of the FDGiCu has been excreted and thus fluorescence is reduced. The region of interest (ROI) was analyzed with Living Image Software. b Effect of inhibitor 3 to protect against diarrhea caused by CPT-11. Diarrhea severity was scored as described in methods. […] The intensity of hydrolyzed fluorescein was assessed by in vivo imaging system (Caliper Life Sciences) and quantified as GUS activity. […]

BALB/c mice [6] = test: In vivo diarrhea test (CPT-11); parameters: species or system mouse; details: BALB/c mice, 10 days
[7] = [Inhibitor 3] = 0.5 μM, [MUG] 0.0375 mM
[8] = [Inhibitor 3] = 0.5 μM, [MUG] 0.075 mM
[9] = [Inhibitor 3] = 0.5 μM, [MUG] 0.15 mM
[10] = [Inhibitor 3] = 0.5 μM, [MUG] 0.3 mM
[11] = [Inhibitor 3] = 1 μM, [MUG] 0.0375 mM
[12] = [Inhibitor 3] = 1 μM, [MUG] 0.075 mM
[13] = [Inhibitor 3] = 1 μM, [MUG] 0.15 mM
[14] = [Inhibitor 3] = 1 μM, [MUG] 0.3 mM
[15] = [Inhibitor 3] = 2 μM, [MUG] 0.0375 mM
[16] = [Inhibitor 3] = 2 μM, [MUG] 0.075 mM
[17] = [Inhibitor 3] = 2 μM, [MUG] 0.15 mM
[18] = [Inhibitor 3] = 2 μM, [MUG] 0.3 mM
[19] = [Inhibitor 3] = 4 μM, [MUG] 0.0375 mM
[20] = [Inhibitor 3] = 4 μM, [MUG] 0.075 mM
[21] = [Inhibitor 3] = 4 μM, [MUG] 0.15 mM
[22] = [Inhibitor 3] = 4 μM, [MUG] 0.3 mM
[23] = phosphate buffer (250 mM NaCl, 20 mM KH2PO4, 100 mM Na2HPO4, pH 8.0), 298 K

With CCCCCC[C@@H]1NC[C@@H](O)[C@H](O)[C@H]1C(=O)O [Inhibitor 3, C6-hexyl UIFG] the Ki ([1]; LgGUS, 50 mM sodium acetate pH 4.5, 37 °C) was 0.86 ± 0.18 µM, the 1/v [1, 7] was 0.401 and 0.3673 and 0.39 and the “GUS activity (hydrolysis rate of MUG)” value [1, 7] was 3104.19 and 3385.21 and 3190.6. The 1/v [1, 8] was 0.256 and 0.2525 and 0.2536, the “GUS activity (hydrolysis rate of MUG)” value [1, 8] was 4839.61 and 4906.13 and 4884.95 and the 1/v [1, 9] was 0.1953 and 0.1691 and 0.1949. For the same compound, the “GUS activity (hydrolysis rate of MUG)” value [1, 9] was 6330.06 and 7304.48 and 6344.76, the 1/v [1, 10] was 0.1452 and 0.1349 and 0.1522 and the “GUS activity (hydrolysis rate of MUG)” value [1, 10] was 8498.3 and 9149.25 and 8113.44. The 1/v [1, 11] was 0.5803 and 0.4953 and 0.5757, the “GUS activity (hydrolysis rate of MUG)” value [1, 11] was 2157.49 and 2520.77 and 2174.43 and the 1/v [1, 12] was 0.3424 and 0.3184 and 0.351. The “GUS activity (hydrolysis rate of MUG)” value [1, 12] was 3628.61 and 3898.42 and 3540.08, the 1/v [1, 13] was 0.2292 and 0.221 and 0.234 and the “GUS activity (hydrolysis rate of MUG)” value [1, 13] was 5401.09 and 5599.95 and 5290.95. For the same compound, the 1/v [1, 14] was 0.17 and 0.1709 and 0.1804, the “GUS activity (hydrolysis rate of MUG)” value [1, 14] was 7266.77 and 7229.36 and 6851.15 and the 1/v [1, 15] was 0.7678 and 0.7232 and 0.846. For the same compound, the “GUS activity (hydrolysis rate of MUG)” value [1, 15] was 1640.4 and 1739.08 and 1492.59, the 1/v [1, 16] was 0.3881 and 0.4343 and 0.4681 and the “GUS activity (hydrolysis rate of MUG)” value [1, 16] was 3205.84 and 2869.39 and 2664.86. For the same compound, the 1/v [1, 17] was 0.2765 and 0.2621 and 0.3029, the “GUS activity (hydrolysis rate of MUG)” value [1, 17] was 4483.64 and 4728.12 and 4096.06 and the 1/v [1, 18] was 0.1941 and 0.1876 and 0.2109. The “GUS activity (hydrolysis rate of MUG)” value [1, 18] was 6369.22 and 6587.98 and 5864.23, the 1/v [1, 19] was 1.38 and 1.418 and 1.362 and the “GUS activity (hydrolysis rate of MUG)” value [1, 19] was 930.888 and 906.847 and 942.511. For the same compound, the 1/v [1, 20] was 0.7054 and 0.7651 and 0.7316, the “GUS activity (hydrolysis rate of MUG)” value [1, 20] was 1782.13 and 1646.05 and 1719.56 and the 1/v [1, 21] was 0.4164 and 0.4204 and 0.422. The “GUS activity (hydrolysis rate of MUG)” value [1, 21] was 2991.08 and 2963 and 2951.69, the 1/v [1, 22] was 0.2731 and 0.2793 (2×) and the “GUS activity (hydrolysis rate of MUG)” value [1, 22] was 4539.61 and 4438.44 and 4439.48. The ΔH (EcGUS; Tris buffer (250 mM NaCl, 20 mM Tris, pH 8.0), 298 K) was “Essentially no enthalpy change was evident; also recorded: close to zero”, the “ΔΔH relative to 2 (ΔΔH2–3, ΔΔH2–4)” value (EcGUS; phosphate buffer) was “+0.04 kcal mol^−1” and the “–TΔΔS relative to 2 (–TΔΔS2–3, –TΔΔS2–4)” value (EcGUS; phosphate buffer) was “–1.32 kcal mol^−1”. For the same compound, the Kd (EcGUS; [23]) was 0.03 ± 0.01 µM, the ΔG (EcGUS; [23]) was “–10.24 ± 0.18 kcal/mol” and the ΔH (EcGUS; [23]) was “–3.95 ± 0.06 kcal/mol”. The “—TΔS” value (EcGUS; [23]) was “–6.29 ± 0.13 kcal/mol”, the cytotoxicity [2] was “No cytotoxicity was evident” and the cytotoxicity [3] was “No cytotoxicity was evident”. For the same compound, the “health of the epithelial layer and intestinal glandular structure (hematoxylin and eosin staining)” value (BALB/c mice [4]) was “neither compound affected the health of the epithelial layer or the intestinal glandular structure”, the “fluorescein fluorescence in the intestinal region (gut bacterial GUS activity)” value [5] was “Reduced fluorescence” and the diarrhea (BALB/c mice [6]; CPT-11 30 mg per kg daily with inhibitor 3 5.8 µg orally twice per day) was “diarrhea was significantly suppressed; also recorded: significantly reduced diarrhea”. The diarrhea (BALB/c mice [6]; inhibitor 3 only, 5.8 µg given orally twice per day) was “neither the negative control nor inhibitor 3 caused diarrhea”.
